Earlier results in US20180116952A1, “ORAL PHARMACEUTICAL COMPOSITION OF METHYL[…] METHODS OF USE THEREOF” (Lupin Atlantis Holdings SA, priority 2015, published 2018).

Test system: patients with drug-induced refractory headache
Settings: 60 consecutive patients with drug-induced refractory headache

## CCC(CO)NC(=O)[C@@H]1C=C2c3cccc4[nH]cc(c34)C[C@H]2N(C)C1.O=C(O)/C=C\C(=O)O (stereo partly shown) [methylergonovine, methylergonovine maleate]
  patients in whom methylergonovine was effective: 73%
